In patent US12648957B2, “Compositions and methods for the treatment of SWI-SNF mutant tumors” (The Children's Hospital of Philadelphia, priority 2019, dated 2026):

Legend:
[1] = system: BT12 and G401 rhabdoid tumor cells; assay: Dose response curves in BT12 and G401 cells; type: cell-based; conditions: for sensitivity of rhabdoid tumor cells (dose response curve): BT12 and G401
Protocol: (§1) Cell Culture. BT12 and CHLA266 cell lines were obtained from the Children's Oncology Group. G401 cell line was obtained from ATCC. TC32 cells were obtained from Dr. Lee Helman (Children's Hospital of Los Angeles). U2OS cells were obtained from Dr. Chand Khanna (Ethos Veterinary Health LLC). All cell lines were grown in RPMI-1640 medium (Invitrogen) supplemented with 10% fetal bovine serum (Gemini Bio-Products), 2 mM L-glutamine (Invitrogen), 100 U/mL penicillin and 100 μg/mL streptomycin (Invitrogen). Cell lines were maintained at less than 80% confluency at 37° C. and 5% CO2 and confirmed to be mycoplasma negative every 6-months.
(§2) Cell Proliferation Assays. IC50s were calculated with non-linear regression (Graphpad Prism) as the average of three independent experiments performed in duplicate. Cell viability was measured using MTS assay CellTiter96 (Promega) plotted against a standard curve and was confirmed with real-time proliferation assays on the Incucyte Zoom, as previously described (Harlow et al., 2019).

[2] = system: G401 rhabdoid tumor xenografts; assay: Intramuscular G401 rhabdoid tumor xenograft model; conditions: for median survival: vehicle 28-days
Protocol: Xenograft Experiments. 5×10^6 G401-luc cells were injected intramuscularly into the gastrocnemius of 8 to 10-week-old female homozygous nude mice (Crl; Nu-Foxn1^Nu). […] Pumps were implanted intraperitoneally and removed with 7-days after end of drug delivery. […] Investigators were not blinded to the treatment groups.
Bioluminescence Imaging. Mice were administered Firefly D-Luciferin (GoldBio, 1.5 mg/mouse) with intraperitoneal injections. After injection anesthesia was administered throughout the image acquisition (3% isoflurane at 1 L/min 02 flow). Bioluminescent images were taken 10 minutes after injection using the AMI-1000 imaging system.
Tissue Staining and Immunohistochemistry. Tissues were decalcified in 10% EDTA (pH 8.0) for 7-days prior to paraffin embedding. Paraffin embedded tissue was sectioned into 5-micrometer sections and mounted on colormark plus charged slides. Hematoxylin and Eosin staining was performed on the Ventana Symphony instrument. For immunohistochemistry, antigen retrieval was performed on the PT Link platform on the Dako Autostainer Plus instrument. Following blocking, tissue was incubated with H3K27me3 antibody (Abcam 1:250) or Cleaved Caspase-3 (Cell Signaling Antibody 1:250), washed and then secondary antibody (Envision+System HRP labelled polymer Anti-Rabbit, Dako 1:100) and finished with Dako Liquid DAB+Substrate Chromogen System.

[3] = system: BT12 and G401 rhabdoid tumor cells; assay: Live cell imaging proliferation and phenotype (Incucyte Zoom); type: cell-based; conditions: BT12, EC-8042 200 nM compared with mithramycin 100 nM
Protocol: as §2

[4] = multiple species; cited from earlier work
[5] = system: rhabdoid tumor cell lines (BT12 AT/RT, CHLA266 AT/RT, and G401 RTK); assay: Cell proliferation assay (MTS CellTiter96), rhabdoid tumor vs Ewing sarcoma cells; type: cell-based; conditions: three rhabdoid tumor cell lines vs Ewing sarcoma cells, FIG. 1C
Protocol: as §1, §2

SP1 = SP1 expression by quantitative PCR and western blot; conditions: BT12 and G401 cells, tolfenamic acid concentrations of FIG. 3G
Protocol: RNA was subsequently collected using the RNeasy kit and quantified. The RNA was reverse transcribed with the high capacity reverse transcriptase kit (Life Technologies) at 25° C. for 10 minutes, 37° C. for 120 minutes, and 85° C. for 5 minutes. 100 ng cDNA was PCR amplified with 2×SYBR green at 95° C. for 10 min, 95° C. for 15 s, 55° C. for 15s, and 72° C. for 1 min, for 40 cycles. Expression from three independent experiments performed in duplicate was calculated with standard ddCT methods relative to GAPDH and solvent controls.
Cellular fractionation was performed to separate cytoplasmic and nuclear fractions. Fractionation lysates were lysed with cytoplasmic lysis buffer (25 mM HEPES pH 8.0, 50 mM KCl, and 05% NP-40) supplemented with RNAse (Thermo Fisher Scientific) and protease inhibitors (Sigma-Aldrich) for 15-minutes on ice vortexing every 5-minutes. The nuclei were pelleted at 1500× g for 5 minutes and the cytoplasmic fraction was isolated. The nuclei pellet was lysed with 4% LDS lysis buffer. Following dilution of detergent, protein was quantified with the BCA colorimetric assay (Thermo-Scientific). […] Transfer was run at 20 V and 4° C. overnight. The membranes were blocked with 5% milk in TBS-T (1×TBS, 0.1% Tween-20) and probed with Abcam (H3K27me3), EMD Millipore (SP1), and Cell Signaling (SMARCC1, SMARCE1, H3) antibodies.

[6] = EC-8042 3-day pump, day 4, vs vehicle

## CO[C@@H]([C@@H]1Cc2cc3cc(O[C@H]4CC(O[C@H]5CC(O)[C@H](O)C(C)O5)[C@H](O)C(C)O4)c(C)c(O)c3c(O)c2C(=O)[C@H]1O[C@H]1CC(O[C@H]2CC(O[C@H]3CC(O)[C@H](O)C(C)O3)[C@@H](O)C(C)O2)[C@H](O)C(C)O1)[C@@H](O)C(C)=O (stereo partly drawn) [EC-8042, demycarosyl-3D-β-D-ditioxosyl-mithramycin SK]
[1]
  sensitivity of rhabdoid tumor cells (dose response curve): sensitive
[1]; in vitro, FIGS. S5A-B
  concentration at which rhabdoid tumor is sensitive, relative to mithramycin: slightly higher concentration as mithramycin
[2]; EC-8042 3-day and 7-day pump, resolved with cessation of drug infusion
  body weight: minimal transient weight loss
[2]; EC-8042 3-day or 7-day pump
  differentiation in xenograft tumors (H&E): striking evidence of mesenchymal differentiation
[2]; EC-8042 3-day pump (30 mg/kg)
  median survival: 68 days
[2]; EC-8042 3-day pump cohort
  mice with complete cures: Three
[2]; [6]
  H3K27ac staining (IHC): decrease
  H3K27me3 staining (IHC): significantly increase in positive staining
  cleaved caspase 3 (CC3) staining (IHC): significantly increase in positive staining
  human mitochondrial staining (IHC): decrease
[2]; EC-8042 7-day pump (50 mg/kg)
  median survival: 70 days
[2]; EC-8042, 7-days after treatment, compared with vehicle
  calcification of tumor tissue (micro-CT): enhances the calcification and mineralization
[2]; EC-8042, most mice
  duration of response post end of infusion: ~6 weeks
[2]; EC-8042, several mice
  time after treatment without tumor recurrence in cured mice: 140 days
[2]; EC-8042, subset of mice, end of infusion
  bioluminescent imaging of tumor: almost no detectable tumor
[2]; EC-8042 continuous infusion
  time to tumor recurrence after treatment end: approximately 40 days
[2]; EC-8042 continuous infusion, 3-days (30 mg/kg) or 7-days (50 mg/kg), all mice in both cohorts
  tumor response: striking regressions
[3]
  cell phenotype: lipid accumulation and a flattened cell phenotype
[4]
  toxicity relative to mithramycin: more than 10 times

## CCc1c2c(nc3ccc(O)cc13)-c1cc3c(c(=O)n1C2)COC(=O)[C@]3(O)CC [SN38]
[5]
  fold less sensitive than Ewing sarcoma cells: 100 fold

## COc1cccc2c1C(=O)c1c(O)c3c(c(O)c1C2=O)C[C@@](O)(C(=O)CO)C[C@@H]3O[C@H]1C[C@H](N)[C@H](O)[C@H](C)O1 [doxorubicin]
[5]
  fold less sensitive than Ewing sarcoma cells: 4 fold

## COc1cc([C@@H]2c3cc4c(cc3[C@@H](O[C@@H]3O[C@@H]5CO[C@@H](C)O[C@H]5[C@H](O)[C@H]3O)[C@H]3COC(=O)[C@H]23)OCO4)cc(OC)c1O [etoposide]
[5]
  fold less sensitive than Ewing sarcoma cells: 70 fold

## Cc1c(Cl)cccc1Nc1ccccc1C(=O)O [tolfenamic acid, reference compound]
SP1
  SP1 expression (western blot): loss of SP1 expression
[1]
  sensitivity of rhabdoid tumor cells (dose response curve): not sensitive
